The record followed here is ChEMBL document CHEMBL1201862, “PubChem BioAssay data set” (2004).

Test systems include HCC 2998; RPMI-8226; EKVX; NCI-H226; SW-620; NCI-H522; TK-10; SN12C; OVCAR-5; SR; NCI-H460; HOP-92; HOP-62; CCRF-CEM; LOX IMVI; SF-268; HL-60.
Common to all, as to assay: inhibition of tumour cell growth, NCI panel, 48 h

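How tested: cells in 96-well plates exposed to compound for 48 hours at five concentrations. GI50 = concentration required for 50% inhibition of growth.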 Calls of active or inactive are those of the source. Cut-off read from the data, not from the text of the source: active = GI50 up to about 1.1 µM and inactive = higher. Non-standard residues stand in square brackets, D forms with d. Residues, ends and D or L forms follow the SMILES beside them. *: point of attachment. NMeF = CN[CH](Cc1ccccc1)C(=O)O; NMeV = CN[CH](C(=O)O)C(C)C; Boc = CC(C)(C)OC(=O)*

For the molecule `CC(C)C1CC[C@@H](C)C[C@@]1(O)CC(N)=O` (stereo not given in full), the GI50 with HCC 2998, with RPMI-8226, in the experiment on EKVX, in the experiment with NCI-H226, in the experiment with SW-620 and in the experiment with NCI-H522 was > 100 µM (inactive) each time. Further, the GI50 with TK-10 is > 100 µM (inactive); in the experiment with SN12C, > 100 µM (inactive); with OVCAR-5, > 100 µM (inactive); with SR it was > 100 µM (inactive); with NCI-H460, > 100 µM (inactive); in the experiment on HOP-92 it was < 0.01 µM (active).

`CC1C2C=C(O)C(=O)C(C2=O)C1c1ccccc1` (stereo not given): the GI50 in the experiment with HCC 2998 is > 100 µM (inactive); in the experiment with RPMI-8226, > 100 µM (inactive); in the experiment with HOP-62 it was > 100 µM (inactive); in the experiment on EKVX, > 100 µM (inactive); in the experiment on NCI-H226, 45.1 µM (inactive); with SW-620 it was > 100 µM (inactive). Moreover, the GI50 with NCI-H522, in the experiment with TK-10, in the experiment on CCRF-CEM, in the experiment on OVCAR-5, in the experiment with SR and in the experiment with LOX IMVI was > 100 µM (inactive) each time. In addition, the GI50 in the experiment on HOP-92 and with SF-268 was > 100 µM (inactive) each time.

For the molecule `CN(C)c1ccccc1CC(c1c[nH]c2ccccc12)c1c[nH]c2ccccc12`, the GI50 was 9.46 µM (inactive) in the experiment on HCC 2998; 6.62 µM (inactive) with HOP-62; 5.38 µM (inactive) in the experiment on EKVX; 12.1 µM (inactive) in the experiment on NCI-H226; 6.7 µM (inactive) in the experiment with SW-620; 12.9 µM (inactive) in the experiment on NCI-H522. Besides, the GI50 was 16.2 µM (inactive) in the experiment on TK-10; 9.51 µM (inactive) with CCRF-CEM; 3.1 µM (inactive) with SN12C; 7.93 µM (inactive) in the experiment with HL-60; 16.9 µM (inactive) in the experiment with OVCAR-5; 5.46 µM (inactive) with SR. Also, the GI50 is 11.8 µM (inactive) with LOX IMVI, 4.72 µM (inactive) in the experiment with NCI-H460 and 14.8 µM (inactive) with SF-268.

For the molecule `CC(C)C(NC(=O)OC(C)(C)C)C(=O)N(C)C(Cc1ccccc1)C(=O)N(C)C(C(=O)O)C(C)C` (stereo not drawn) (Boc-Val-[NMeF]-[NMeV]-OH; configuration not given here), the GI50 with HCC 2998, with RPMI-8226, in the experiment on HOP-62, in the experiment on EKVX, in the experiment with NCI-H226 and with SW-620 was > 100 µM (inactive) throughout. The GI50 in the experiment on NCI-H522 is 71.1 µM (inactive); with TK-10, > 100 µM (inactive); in the experiment on CCRF-CEM, > 100 µM (inactive); with SN12C, > 100 µM (inactive); with HL-60, > 100 µM (inactive); with SR it was > 100 µM (inactive). Further, the GI50 with LOX IMVI was > 100 µM (inactive); in the experiment with NCI-H460 it was > 100 µM (inactive); in the experiment with SF-268 it was 62.4 µM (inactive).

Consider `COc1cc(C(=O)C(CO)Oc2ccccc2OC)ccc1O` (stereo not given), for which the GI50 in the experiment with HCC 2998, in the experiment on HOP-62, with EKVX, in the experiment with NCI-H226, with SW-620 and in the experiment with NCI-H522 was > 100 µM (inactive) in each case. Besides, the GI50 was > 100 µM (inactive) with TK-10; > 100 µM (inactive) in the experiment with CCRF-CEM; > 100 µM (inactive) in the experiment with SN12C; > 100 µM (inactive) in the experiment on HL-60; > 100 µM (inactive) in the experiment on OVCAR-5; 34.9 µM (inactive) in the experiment with SR. Besides, the figures for the GI50 in the experiment with NCI-H460, in the experiment on HOP-92 and with SF-268 were > 100 µM (inactive), 88.7 µM (inactive) and > 100 µM (inactive), respectively.

With `CCC1C(C)c2c([nH]c3ccccc23)C2C(=O)N(c3ccccc3)C(=O)C21` (stereo not given), the GI50 in the experiment on HCC 2998 was 15.5 µM (inactive); in the experiment on RPMI-8226, 11.9 µM (inactive); in the experiment on EKVX, 14 µM (inactive); in the experiment with SW-620, 16.5 µM (inactive); in the experiment with TK-10 it was 31.3 µM (inactive); in the experiment with CCRF-CEM it was 18 µM (inactive). Further, the GI50 is 13.5 µM (inactive) in the experiment on SN12C; 11.1 µM (inactive) in the experiment with HL-60; 8.41 µM (inactive) in the experiment on SR; 15.7 µM (inactive) with LOX IMVI; 14.3 µM (inactive) with NCI-H460; 20 µM (inactive) in the experiment on SF-268.

`COc1ccc(OC)c(/C(C)=N/NC(N)=S)c1`: the GI50 with HCC 2998, in the experiment with RPMI-8226, with HOP-62, in the experiment on EKVX, in the experiment on NCI-H226 and in the experiment with SW-620 was > 100 µM (inactive) throughout. In addition, the GI50 in the experiment with TK-10, in the experiment with CCRF-CEM, with SN12C, in the experiment on HL-60, in the experiment with OVCAR-5 and with SR was > 100 µM (inactive) in each case. The GI50 with LOX IMVI, in the experiment on NCI-H460, in the experiment on HOP-92 and with SF-268 was > 100 µM (inactive) in each case.

For the molecule `COC(=O)C1CC2c3c(c4ccccc4n3C)CC(C1=O)N2C` (stereo not given), the GI50 was 34.8 µM (inactive) in the experiment on HCC 2998; 57.1 µM (inactive) in the experiment on EKVX; 50.6 µM (inactive) with NCI-H226; 34.8 µM (inactive) in the experiment with SW-620; 17.3 µM (inactive) with NCI-H522; 40.2 µM (inactive) in the experiment on TK-10. For the same molecule, the GI50 is 34.6 µM (inactive) in the experiment on CCRF-CEM; 67.8 µM (inactive) with SN12C; 27.3 µM (inactive) in the experiment with HL-60; > 100 µM (inactive) in the experiment with OVCAR-5; 27.5 µM (inactive) in the experiment on SR; 78.9 µM (inactive) in the experiment with LOX IMVI. For the same molecule, the figures for the GI50 in the experiment with NCI-H460, in the experiment on HOP-92 and in the experiment on SF-268 were 45.3 µM (inactive), 74.3 µM (inactive) and 68.9 µM (inactive), respectively.

Turning to `CC1=NC2(C(=O)O)C3(C(=O)O)N=C(C)OC3(C(F)(F)F)C2(C(F)(F)F)O1` (stereo not given), the GI50 in the experiment on HCC 2998, in the experiment with HOP-62, with EKVX, in the experiment on NCI-H226, in the experiment with SW-620 and in the experiment on NCI-H522 was > 100 µM (inactive) in each case. Also, the GI50 with TK-10, with CCRF-CEM, in the experiment on SN12C, with HL-60, in the experiment with OVCAR-5 and in the experiment with SR was > 100 µM (inactive) in each case. In addition, the GI50 in the experiment on LOX IMVI, with NCI-H460, in the experiment on HOP-92 and in the experiment with SF-268 was > 100 µM (inactive) each time.

In the case of `CCOC(=O)c1c(-c2[nH]c(C(=O)OCc3ccccc3)c(C)c2C(=O)OCC)[nH]c(C(=O)OCc2ccccc2)c1C`, the GI50 in the experiment with HCC 2998, with RPMI-8226, in the experiment on HOP-62, in the experiment on EKVX, in the experiment on NCI-H226 and with SW-620 was > 100 µM (inactive) each time. Also, the GI50 with NCI-H522, in the experiment with TK-10, in the experiment with SN12C, in the experiment on OVCAR-5, in the experiment with SR and in the experiment on LOX IMVI was > 100 µM (inactive) throughout. Besides, the GI50 in the experiment on NCI-H460 is > 100 µM (inactive); with HOP-92, 55.2 µM (inactive); in the experiment on SF-268, > 100 µM (inactive).
